The assay concerns the target PCSK9 (Homo sapiens (Human), UniProt Q8NBP7). The assay is described as follows: PCSK9 Alexa FRET Standard assay (displacement of AlexaFluor647 tagged cyclic peptide Reagent A). It counts as binding. The settings on record: PCSK9 Alexa FRET Standard assay, 0.5 nM PCSK9, 20 nM AF cyclic peptide Reagent A; read-out: IC50. The procedure:
A solution containing 1 nM biotinylated PCSK9+2.5 nM Lance Streptavidin Europium (Strep-Eu) was made in 50 mM HEPES pH 7.4, 0.15 M NaCl, 5 mM CaCl2), 0.01% BSA, and 0.01% Surfactant P20. A separate solution containing 40 nM of the AlexaFluor tagged cyclic peptide was made in the same buffer system. An Echo was used to transfer 0.750 ul of compound to an assay plate followed by the addition of 15 ul of PCSK9+Stept-Eu and 15 ul of AF peptide. The final assay volume was 30.750 ul containing 0.5 nM PCSK9, 1.25 nM Strep-Eu, and 20 nM AF cyclic peptide. The reaction was incubated at room temperature for at least two hours prior to fluorescence measurements using an Envision Multilabel Reader. IC50 values were determined by fitting data to a sigmoidal dose-response curve using nonlinear regression. Ki was then calculated from the IC50 and the KD of AF cyclic peptide. Counts (B-counts) of the europium-labeled PCSK9 were followed to observe if compounds were […]. A fall off of the B-counts likely indicated a false positive of inhibition. Data from this procedure was reported as “A=‘numerical value’ (nanomolar)”

pIC50: −log10 of the molar value. Starred links: 1 amine or outer side, 2 acyl side, 3 side chain; linkers in the order of their positions; H or OH if unused. Positions of bridges follow the written chain, without caps; N, C: chain ends. Non-standard residues stand in square brackets, D forms with d. Residues, ends and D or L forms follow the SMILES beside them. 2Furoyl(5-aminomethyl) = O=C(c1ccc(CN[*:1])o1)[*:2]; X58 = O=C([C@@H]1[C@H](OCC=[*:3])CCN1[*:1])[*:2]; Ala(imidazol-2-yl) = N[C@@H](Cc1ncc[nH]1)C(=O)O; Phe(4-COOH) = N[C@@H](Cc1ccc(C(=O)O)cc1)C(=O)O; Trp(5-F) = N[C@@H](Cc1c[nH]c2ccc(F)cc12)C(=O)O; Trp(7-aza) = N[C@@H](Cc1c[nH]c2ncccc12)C(=O)O; Phe(4-CH2NH2) = NCc1ccc(C[C@H](N)C(=O)O)cc1; X3 = O=C(CCSCc1cc(F)cc(CSCCN[*:1])c1)[*:2]; X57 = O=C([C@@H](CCCCC=[*:3])N[*:1])[*:2]; Pro(cis-4-F) = O=C(O)[C@@H]1C[C@H](F)CN1; X4 = O=C(CCSCc1cccc(CSCCN[*:1])c1)[*:2]; mXylylene = c1cc(C[*:1])cc(C[*:2])c1; AEF = NCCOc1ccc(C[C@H](N)C(=O)O)cc1; X48 = CC(N[*:1])c1ncc(C(=O)[*:2])s1; Adipoyl = O=C(CCCCC(=O)[*:2])[*:1]; Lys(Me2) = CN(C)CCCC[C@H](N)C(=O)O; cisHyp = O=C(O)[C@@H]1C[C@H](O)CN1; X34 = O=C(CCC1CCN([*:1])CC1)[*:2]; Asu = N[C@@H](CCCCCC(=O)O)C(=O)O; aThr = C[C@H](O)[C@H](N)C(=O)O; X63 = c1ncc(C[*:2])nc1C[*:1]; αMeP = C[C@@]1(C(=O)O)CCCN1; 3Amb = NCc1cccc(C(=O)O)c1; Dab = NCC[C@H](N)C(=O)O; Dap = NC[C@H](N)C(=O)O; AEEA = NCCOCCOCC(=O)O; X2 = O=C(C[*:2])[*:1]; Mpa = O=C(O)CCS

Chain of PCSK9 (Q8NBP7 153-692): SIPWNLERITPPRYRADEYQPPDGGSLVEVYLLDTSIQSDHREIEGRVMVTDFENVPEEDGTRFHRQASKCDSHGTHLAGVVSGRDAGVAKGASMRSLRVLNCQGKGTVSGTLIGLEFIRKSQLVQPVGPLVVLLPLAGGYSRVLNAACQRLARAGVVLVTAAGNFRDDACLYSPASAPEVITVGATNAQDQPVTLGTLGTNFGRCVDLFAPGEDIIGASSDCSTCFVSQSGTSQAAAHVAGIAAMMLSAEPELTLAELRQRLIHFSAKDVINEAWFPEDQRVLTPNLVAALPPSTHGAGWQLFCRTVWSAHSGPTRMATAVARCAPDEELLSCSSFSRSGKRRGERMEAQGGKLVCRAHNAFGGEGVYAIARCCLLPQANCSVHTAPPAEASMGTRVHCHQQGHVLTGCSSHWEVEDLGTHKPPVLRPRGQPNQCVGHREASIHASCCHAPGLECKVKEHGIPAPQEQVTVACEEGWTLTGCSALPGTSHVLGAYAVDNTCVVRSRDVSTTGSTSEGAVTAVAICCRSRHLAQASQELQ

For the molecule `COc1ccc(C[C@@H]2NC(=O)[C@H]([C@@H](C)O)NC(=O)[C@@H]3CCCN3C(=O)[C@H](Cc3c[nH]c4ccc(F)cc34)NC(=O)[C@H](Cc3c[nH]c4ccc(F)cc34)NC(=O)[C@@H](C)NC(=O)[C@H](CCCCN)NC(=O)CCSCc3cncc(n3)CSC[C@@H](C(N)=O)NC(=O)[C@]3(C)CCCN3C2=O)cc1` [Compound 090] ([Mpa]K[dA][Trp(5-F)][Trp(5-F)]PTY(Me)[αMeP]C-NH2; linker 1-10 via X63), the pIC50 (in general, −log10 of the IC50, conventionally taken in molar units) is 4.92 to 6.00.
The value for `COc1ccc(C[C@@H]2NC(=O)[C@H](Cc3ncc[nH]3)NC(=O)[C@H](CC(=O)O)NC(=O)[C@H](Cc3c[nH]c4ccc(F)cc34)NC(=O)[C@H](Cc3c[nH]c4ccc(F)cc34)NC(=O)[C@@H](C)NC(=O)[C@H](C)NC(=O)CCSCc3cccc(c3)CSCCNC(=O)[C@]3(C)CCCN3C2=O)cc1` [Compound 407] (cyclo(A[dA][Trp(5-F)][Trp(5-F)]D[Ala(imidazol-2-yl)]Y(Me)[αMeP][X4])) was 4.30 to 4.68; that for `COc1ccc(C[C@@H]2NC(=O)[C@H](Cc3ncc[nH]3)NC(=O)[C@H](CC(=O)O)NC(=O)[C@H](Cc3c[nH]c4ccc(F)cc34)NC(=O)[C@H](Cc3c[nH]c4ccc(F)cc34)NC(=O)[C@@H](C)NC(=O)[C@H](CCCCN(C)C)NC(=O)CCSCc3cc(F)cc(c3)CSCCNC(=O)[C@]3(C)CCCN3C2=O)cc1` [Compound 465] (cyclo(D[Ala(imidazol-2-yl)]Y(Me)[αMeP][X3][Lys(Me2)][dA][Trp(5-F)][Trp(5-F)])) was 4.92 to 6.00.
With `CC(=O)N[C@H]1CCCc2cn(nn2)-c2ccc(cc2)C[C@@H](C(N)=O)NC(=O)[C@]2(C)CCCN2C(=O)[C@H](Cc2ccc(O)cc2)NC(=O)[C@H](Cc2cnc[nH]2)NC(=O)[C@H](CC(=O)O)NC(=O)[C@H](Cc2c[nH]c3ccc(F)cc23)NC(=O)[C@H](Cc2c[nH]c3ccc(F)cc23)NC(=O)CNC(=O)[C@H](C)NC1=O` [Compound 337], the pIC50 is 4.30 to 4.68.
For `CC1NC(=O)CCSCc2cccc(c2)CSC[C@@H](C(N)=O)NC(=O)[C@]2(C)CCCN2C(=O)[C@H](Cc2ccc(O)cc2)NC(=O)[C@H](Cc2cnc[nH]2)NC(=O)[C@H](CC(=O)O)NC(=O)[C@H](Cc2c[nH]c3ccc(F)cc23)NC(=O)[C@H](Cc2c[nH]c3ccc(F)cc23)NC(=O)C2=CN=C1S2` (stereo partly shown) [Compound 434] ([Mpa][X48][Trp(5-F)][Trp(5-F)]DHY[αMeP]C-NH2; linker 1-9 via mXylylene), the pIC50 is 4.30 to 4.68.
The value for `C[C@@]12CCCN1C(=O)[C@H](Cc1ccc(O)cc1)NC(=O)[C@H](Cc1cnc[nH]1)NC(=O)[C@H](CC(=O)O)NC(=O)[C@H](Cc1c[nH]c3ccc(F)cc13)NC(=O)[C@H](Cc1c[nH]c3ccc(F)cc13)NC(=O)C1=CC=C(CNC(=O)CCSCc3cccc(c3)CSC[C@@H](C(N)=O)NC2=O)O1` [Compound 428] ([Mpa][2Furoyl(5-aminomethyl)][Trp(5-F)][Trp(5-F)]DHY[αMeP]C-NH2; linker 1-9 via mXylylene) was 4.30 to 4.68; that for `NCCCC[C@@H]1NC(=O)CCSCc2cccc(c2)CSC[C@@H](C(N)=O)NC(=O)[C@@H]2CCCN2C(=O)[C@H](Cc2c[nH]c3ncccc23)NC(=O)[C@H](Cc2c[nH]cn2)NC(=O)[C@H](CC(=O)O)NC(=O)[C@H](Cc2c[nH]c3ccc(F)cc23)NC(=O)[C@H](Cc2c[nH]c3ccc(F)cc23)NC(=O)CNC1=O` [Compound 235] ([Mpa]KG[Trp(5-F)][Trp(5-F)]DH[Trp(7-aza)]PC-NH2; linker 1-10 via mXylylene) was 4.30 to 4.68.
Turning to `CC(=O)N[C@@H]1CCCC/C=C\CO[C@@H]2CCN(C(=O)[C@H](Cc3ccc(O)cc3)NC(=O)[C@H](Cc3cnc[nH]3)NC(=O)[C@H](CC(=O)O)NC(=O)[C@H](Cc3c[nH]c4ccc(F)cc34)NC(=O)[C@H](Cc3c[nH]c4ccc(F)cc34)NC(=O)CNC1=O)[C@@H]2C(N)=O` [Compound 471] (Ac-[X57]G[Trp(5-F)][Trp(5-F)]DHY[X58]-NH2; staple (Z) 1-8), the pIC50 is 7.00 to 9.96.
For `CC(=O)N[C@H]1CNC(=O)COc2ccc(cc2)C[C@@H](C(N)=O)NC(=O)[C@]2(C)CCCN2C(=O)[C@H](Cc2ccc(O)cc2)NC(=O)[C@H](Cc2cnc[nH]2)NC(=O)[C@H](CC(=O)O)NC(=O)[C@H](Cc2c[nH]c3ccc(F)cc23)NC(=O)[C@H](Cc2c[nH]c3ccc(F)cc23)NC(=O)CNC(=O)[C@H](C)NC1=O` [Compound 351] (Ac-[Dap]AG[Trp(5-F)][Trp(5-F)]DHY[αMeP]Y-NH2; linker 1-10 via X2), the pIC50 is 4.30 to 4.68.
For `COc1ccc(C[C@@H]2NC(=O)[C@H](Cc3cnc[nH]3)NC(=O)[C@H](CC(=O)O)NC(=O)[C@H](Cc3c[nH]c4ccc(F)cc34)NC(=O)[C@H](Cc3c[nH]c4ccc(F)cc34)NC(=O)[C@@H](C)NC(=O)[C@H](CCCCCC(=O)O)NC(=O)CCSCc3cccc(c3)CSCCNC(=O)[C@]3(C)CCCN3C2=O)cc1` [Compound 426] (cyclo([Asu][dA][Trp(5-F)][Trp(5-F)]DHY(Me)[αMeP][X4])), the pIC50 was 4.92 to 6.00.
`COc1ccc(C[C@@H]2NC(=O)[C@H](Cc3cnc[nH]3)NC(=O)[C@H](CC(=O)O)NC(=O)[C@H](Cc3c[nH]c4ccc(F)cc34)NC(=O)[C@H](Cc3c[nH]c4ccc(F)cc34)NC(=O)[C@@H](C)NC(=O)CCC3CCN(CC3)C(=O)c3ccc(cc3)C[C@@H](C(N)=O)NC(=O)[C@]3(C)CCCN3C2=O)cc1` [Compound 389] ([X34][dA][Trp(5-F)][Trp(5-F)]DHY(Me)[αMeP][Phe(4-COOH)]-NH2; lactam N-9): the pIC50 was 4.30 to 4.68.
For the molecule `C[C@@]12CCCN1C(=O)[C@H](Cc1ccc(O)cc1)NC(=O)c1cccc(c1)CNC(=O)[C@H](Cc1c[nH]c3ccc(F)cc13)NC(=O)[C@H](Cc1c[nH]c3ccc(F)cc13)NC(=O)CNC(=O)[C@H](CCCCN)NC(=O)CCSCc1cccc(c1)CSC[C@@H](C(N)=O)NC2=O` [Compound 088] ([Mpa]KG[Trp(5-F)][Trp(5-F)][3Amb]Y[αMeP]C-NH2; linker 1-9 via mXylylene), the pIC50 was 6.00 to 7.00.
In the case of `CC(C)C[C@H]1C(=O)N[C@@H](Cc2ccc(O)cc2)C(=O)N2CCC[C@@]2(C)C(=O)N[C@H](C(N)=O)CSCc2cccc(c2)CSCCC(=O)N[C@@H](CCCCN)C(=O)NCC(=O)N[C@@H](Cc2c[nH]c3ccc(F)cc23)C(=O)N[C@@H](Cc2c[nH]c3ccc(F)cc23)C(=O)N[C@H]2CCN1C2=O` [Compound 472], the pIC50 was 7.00 to 9.96.
The value for `COc1ccc(C[C@@H]2NC(=O)[C@H](Cc3ncc[nH]3)NC(=O)[C@H](CC(=O)O)NC(=O)[C@H](Cc3c[nH]c4ccc(F)cc34)NC(=O)[C@H](Cc3c[nH]c4ccc(F)cc34)NC(=O)[C@@H](C)NC(=O)[C@H](CNC(=O)COCCOCCN)NC(=O)CCSCc3cccc(c3)CSCCNC(=O)[C@]3(C)CCCN3C2=O)cc1` [Compound 448] (cyclo(D[Ala(imidazol-2-yl)]Y(Me)[αMeP][X4][Dap](AEEA)[dA][Trp(5-F)][Trp(5-F)])) was 7.00 to 9.96; that for `COc1ccc(C[C@@H]2NC(=O)[C@@H]([C@H](C)O)NC(=O)[C@@H]3C[C@H](O)CN3C(=O)[C@H](Cc3c[nH]c4ccc(F)cc34)NC(=O)[C@H](Cc3c[nH]c4ccc(F)cc34)NC(=O)[C@@H](C)NC(=O)[C@H](CCCCN)NC(=O)CCSCc3cccc(c3)CSCCNC(=O)[C@]3(C)CCCN3C2=O)cc1` [Compound 085] (cyclo(K[dA][Trp(5-F)][Trp(5-F)][cisHyp][dT]Y(Me)[αMeP][X4])) was 4.30 to 4.68.
The value for `COc1ccc(C[C@@H]2NC(=O)[C@H]([C@H](C)O)NC(=O)[C@@H]3C[C@H](F)CN3C(=O)[C@H](Cc3c[nH]c4ccc(F)cc34)NC(=O)[C@H](Cc3c[nH]c4ccc(F)cc34)NC(=O)[C@@H](C)NC(=O)CCCCC(=O)NCCOc3ccc(cc3)C[C@@H](C(N)=O)NC(=O)[C@]3(C)CCCN3C2=O)cc1` [Compound 099] ([dA][Trp(5-F)][Trp(5-F)][Pro(cis-4-F)][aThr]Y(Me)[αMeP][AEF]-NH2; linker N-8 via Adipoyl) was 4.30 to 4.68; that for `NC(=O)[C@@H]1Cc2ccc(cc2)CNC(=O)CCCCC(=O)NCC(=O)N[C@@H](Cc2c[nH]c3ccc(F)cc23)C(=O)N[C@@H](Cc2c[nH]c3ccc(F)cc23)C(=O)N[C@@H](CC(=O)O)C(=O)N[C@@H](Cc2cnc[nH]2)C(=O)N[C@@H](Cc2ccc(O)cc2)C(=O)N1` [Compound 438] (G[Trp(5-F)][Trp(5-F)]DHY[Phe(4-CH2NH2)]-NH2; linker N-7 via Adipoyl) was 4.30 to 4.68.
For `CC(=O)N[C@H]1CCNC(=O)COc2ccc(cc2)C[C@@H](C(N)=O)NC(=O)[C@]2(C)CCCN2C(=O)[C@H](Cc2ccc(O)cc2)NC(=O)[C@H](Cc2cnc[nH]2)NC(=O)[C@H](CC(=O)O)NC(=O)[C@H](Cc2c[nH]c3ccc(F)cc23)NC(=O)[C@H](Cc2c[nH]c3ccc(F)cc23)NC(=O)CNC(=O)[C@H](C)NC1=O` [Compound 352] (Ac-[Dab]AG[Trp(5-F)][Trp(5-F)]DHY[αMeP]Y-NH2; linker 1-10 via X2), the pIC50 is 4.30 to 4.68.
Under `COc1ccc(C[C@@H]2NC(=O)[C@H](Cc3ncc[nH]3)NC(=O)[C@H](CC(=O)O)NC(=O)[C@H](Cc3c[nH]c4ccc(F)cc34)NC(=O)[C@H](Cc3c[nH]c4ccc(F)cc34)NC(=O)[C@@H](C)NC(=O)[C@H](CNC(=O)COCCOCCN)NC(=O)CCSCc3cccc(c3)CSCCNC(=O)[C@]3(C)CCCN3C2=O)cc1` [Compound 447] (cyclo(D[Ala(imidazol-2-yl)]Y(Me)[αMeP][X4][Dap](AEEA)[dA][Trp(5-F)][Trp(5-F)])) stands 6.00 to 7.00.

Values taken from patent publication US11530244B2, “Cyclic polypeptides for PCSK9 inhibition” (priority 2018, dated 2022).
